Results taken from patent publication US20160201132A1, “GENE EXPRESSION BIOMARKERS OF LAQUINIMOD RESPONSIVENESS” (Teva Pharmaceutical Industries Ltd., priority 2013, published 2016).

Tested on: CXCR1
Experiment: Western blot verification of CXCR1 protein in PBMC of LAQ-treated RRMS patients
Format: in vivo, human
Settings: six months of LAQ treatment vs baseline, n=5
Protocol: FIG. 10: Expression of TGFb, ITGB1 and CXCR1 in RRMS patients treated with LAQ. Protein extracts were prepared from PBMCs samples derived from RRMS patients before treatment (black bars) and compared to PBMCs samples of the same patients after six months of LAQ treatment (white bars). The signal intensity of a protein bands were quantified by Quantity One 4.6.9 software. The resultant background-subtracted values of protein expression were normalized to those of Tubulin and then calculated as the relative protein levels for each patient before or after LAQ treatment. The blot images in A, B and C are representative of two out of five analyzed patients showing down regulation of TGFb, ITGB1 and CXCR1, respectively as also quantified by densitometry of bands analyzed from five patients. Data are presented as mean±SEM. Statistically significant differences are marked in graphs (n=5, paired one-tailed t-test). Protein fractions were purified from PBMC of 5 patients at baseline and after six months of LAQ treatment. Proteins were extracted from TRIZOL fractions and solubilized following the method reported by Hummon et al., 2007 (Hummon et al., 2007). […] Blots were analyzed by standard chemi-luminescence (Supersignal Kit, Pierce, Rockford, Ill., USA) and visualization was done by ChemiDoc™ XRS System (Bio-Rad).

CCN(C(=O)c1c(O)c2c(Cl)cccc2n(C)c1=O)c1ccccc1 [LAQ, 5-chloro-N-ethyl-4-hydroxy-1-methyl-2-oxo-N-phenyl-1,2-dihydroquinoline-3-carboxamide]
down regulation of CXCR1 protein: 24.7%
